Reference: patent US20240368120A1 (Terns Pharmaceuticals, Inc., priority 2023, published 2024)

Biological target: T1, human GLP-1R receptor (Homo sapiens, UniProt P43220)
T1 construct: expressed in transfected cells
Test: GLP-1R low expression cell assay (cAMP TR-FRET, CHO-K1_hGLP-1Rlow_clone10 cells)
Format: cell-based
Settings: for EC50: cAMP TR-FRET, 30 min at 25° C.; for Emax: maximum activation relative to control GLP-1 peptide agonist
Summary of the method: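 CHO-K1 cells stably expressing low surface human GLP-1R (clone10), 1,000 cells/well, exposed to 10-point 3-fold compound dilutions for 30 min at 25 °C. cAMP measured by TR-FRET (Eu-cAMP tracer/ULight-anti-cAMP, 15 min). EC50 from Hill fit of duplicate percent activation relative to a parallel GLP-1 control agonist.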

T1 sequence (P43220 24-463): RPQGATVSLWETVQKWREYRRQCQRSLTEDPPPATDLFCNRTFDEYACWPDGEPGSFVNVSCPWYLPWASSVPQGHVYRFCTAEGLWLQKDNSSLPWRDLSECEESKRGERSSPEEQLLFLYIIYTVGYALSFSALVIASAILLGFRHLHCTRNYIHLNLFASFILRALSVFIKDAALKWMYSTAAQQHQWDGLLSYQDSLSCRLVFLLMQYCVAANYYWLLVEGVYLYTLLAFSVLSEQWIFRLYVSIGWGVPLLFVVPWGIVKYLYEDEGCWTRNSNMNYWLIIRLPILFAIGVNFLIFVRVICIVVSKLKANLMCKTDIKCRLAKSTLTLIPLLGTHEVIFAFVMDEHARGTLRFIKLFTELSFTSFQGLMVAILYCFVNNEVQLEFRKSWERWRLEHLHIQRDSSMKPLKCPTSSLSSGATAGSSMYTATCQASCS

| SMILES | EC50 [nM] | Emax [%] |
| --- | --- | --- |
| CC(F)(F)c1cc(C(=O)O)cc2c1nc(CN1CCC(c3cccc4c3O[C@@](C)(c3ccc(Cl)cn3)O4)CC1)n2C[C@@H]1CCO1 [Compound 386, 2-((4-((S)-2-(5-Chloropyridin-2-yl)-2-methylbenzo[d][1,3]dioxol-4-yl)piperidin-1-yl)methyl)-4-(1,1-difluoroethyl)-1-(((S)-oxetan-2-yl)methyl)-1H-benzo[d]imidazole-6-carboxylic acid] | 10 to 100 | > 85 |
| N#Cc1ccc(COc2cccc(C3CCN(Cc4nc5c(N)nc(C(=O)O)cc5n4C[C@@H]4CCO4)CC3)n2)c(F)c1 [Compound 134, (S)-4-amino-2-((4-(6-((4-cyano-2-fluorobenzyl)oxy)pyridin-2-yl)piperidin-1-yl)methyl)-1-(oxetan-2-ylmethyl)-1H-imidazo[4,5-c]pyridine-6-carboxylic acid] | 10 to 100 | > 85 |
| Cn1c(CN2CCC(n3nccc3OCc3ccc(Cl)cc3F)CC2)nc2c(OC(F)F)cc(C(=O)O)cc21 [Compound 200, 2-((4-(5-((4-Chloro-2-fluorobenzyl)oxy)-1H-pyrazol-1-yl)piperidin-1-yl)methyl)-4-(difluoromethoxy)-1-methyl-1H-benzo[d]imidazole-6-carboxylic acid] | > 1000 | > 85 |

Next, values leading:

| EC50 [nM] | Emax [%] | SMILES |
| --- | --- | --- |
| 100 to 1000 | > 85 | Cn1c(CN2CCC(c3cccc(OCc4ccc(Cl)cc4F)n3)CC2)nc2c(OC(F)F)cc(-c3nsc(=O)[nH]3)cc21 [Compound 370, 3-(2-((4-(6-((4-Chloro-2-fluorobenzyl)oxy)pyridin-2-yl)piperidin-1-yl)methyl)-4-(difluoromethoxy)-1-methyl-1H-benzo[d]imidazol-6-yl)-1,2,4-thiadiazol-5 (4H)-one] |
| 10 to 100 | > 85 | Cn1c(CN2CCC(c3cccc(OCc4ccc(Cl)cc4F)n3)CC2)nc2c(OCC3(F)CC3)cc(C(=O)O)cc21 [Compound 188, 2-((4-(6-((4-Chloro-2-fluorobenzyl)oxy)pyridin-2-yl)piperidin-1-yl)methyl)-4-((1-fluorocyclopropyl)methoxy)-1-methyl-1H-benzo[d]imidazole-6-carboxylic acid] |
| 100 to 1000 | – | Cn1c(CN2CCC(c3cccc(OCc4ccccc4F)n3)CC2)nc2c(OC(F)F)cc(C(=O)O)cc21 [Compound 251, 4-(Difluoromethoxy)-2-((4-(6-((2-fluorobenzyl)oxy)pyridin-2-yl)piperidin-1-yl)methyl)-1-methyl-1H-benzo[d]imidazole-6-carboxylic acid] |
| 10 to 100 | > 85 | CC(CF)Oc1cc(C(=O)O)cc2c1nc(CN1CCC(c3cccc(OCc4ccc(Cl)cc4F)n3)CC1)n2C (single isomer, unassigned) [Compound 262] |
| 10 to 100 | > 85 | COc1cc(C(=O)O)cc2c1nc(CN1CCC(c3cccc(OCc4ccc(Cl)cc4F)n3)CC1)n2CF [Compound 209, 2-((4-(6-((4-Chloro-2-fluorobenzyl)oxy)pyridin-2-yl)piperidin-1-yl)methyl)-1-(fluoromethyl)-4-methoxy-1H-benzo[d]imidazole-6-carboxylic acid] |
